Measurements from US20060204530A1, “Benzoyl peroxide compositions and methods of use” (JR CHEM, LLC, priority 2005, published 2006).

Assay: Solubility of benzoyl peroxide in the disclosed solvents
Assay type: physicochemical
Conditions: room temperature
Experimental: In embodiments, benzoyl peroxide can be added to the solvents to form a mixture at room temperature, e.g., at a temperature of 25 to about 27° C. Additionally, the benzoyl peroxide/solvent mixture also can be added to other ingredients to form desired products, e.g., emulsions, lotions, creams or gels at low temperatures. […] However the key difference between the disclosed prior art and the present compositions is that the benzoyl peroxide will actively go into solution at levels as high as 10% by weight of the total formulation. These solutions can offer new clear products of increased efficacy.

## O=C(OOC(=O)c1ccccc1)c1ccccc1 [benzoyl peroxide]
  level at which benzoyl peroxide goes into solution: ≤ 10 % by weight of the total formulation
